Data from US12624067B2, “Cyclic peptide, cell scaffold material, cell separating material, and medium” (FUJIFILM Corporation, priority 2019, dated 2026).
Numbered stars: 1 amine (or outer) side, 2 acyl side, 3 side chain; on linkers, the order of the positions; unused ones are H or OH. Bridge positions count the residues as written; N and C are the ends. Square brackets hold non-standard residues; d marks the D form. Peptide text beside a SMILES is read from it. hCys = N[C@@H](CCS)C(=O)O; Orn = NCCC[C@H](N)C(=O)O; X1 = O=C(C[*:1])[*:2]; X2 = O=C(C[*:2])[*:1]

Tests used:
[1] = Evaluation of molecule stability (alkali treatment, LC/MS residual rate); format: physicochemical; settings: 500 μM peptide plus equivalent of 1 M sodium hydroxide, 15° C., 20 minutes, LC/MS peak area
Experimental: The molecule stability of the cyclic peptide was evaluated by analyzing the alkali-treated cyclic peptide aqueous solution by liquid chromatography mass spectroscopy (LC/MS).
The alkali treatment was carried out by the following method. A 500 μM cyclic peptide aqueous solution was prepared, an equivalent of 1 M sodium hydroxide aqueous solution was added to this aqueous solution, and the resultant mixture was incubated at 15° C. for 20 minutes to obtain an alkali-treated cyclic peptide aqueous solution. The cyclic peptide residual rate was calculated by setting the total area of all peaks of the cyclic peptide before alkali treatment in LC/MS to 100% and determining the proportion of the total area of all peaks in LC/MS of the alkali-treated cyclic peptide aqueous solution, and the molecule stability was evaluated according to the following evaluation standards. It is preferable that the evaluation result satisfies the evaluation standard A, B, or C.
The conditions of the LC/MS used for the evaluation of molecule stability were set as follows. • LC apparatus: Prominence series (pump, column oven, autosampler, detector) (manufactured by Shimadzu Corporation) • MS detector: LC/MS2010EV (manufactured by Shimadzu Corporation) • Column: Cadenza CD-C18, inner diameter 2.0 mm×length 250 mm, particle size: 3 μm (manufactured by Imtakt Corporation) • Eluent A: a solution (pH 3) containing 10 mM ammonium formate as a solute, where the solvent is 100% water. • Eluent B: a solution (pH 3) containing 10 mM ammonium formate as a solute, where the solvent is acetonitrile/water=90/10. • Flow rate: 0.2 mL/min • Injection volume: 4 μL • Gradient: 0% to 30%: Eluent B (0 to 30 minutes), 100%: Eluent B (30 to 40 minutes), 0%: Eluent B (40 to 60 minutes)(B indicates the eluent B) • Column temperature: 45° C. • Ionization method: electrospray ionization (ESI) positive, ESI negative

human integrin αvβ5 = human integrin αvβ5 (Homo sapiens, UniProt P06756+P18084); assay: Evaluation of integrin binding property (surface plasmon resonance, Biacore 3000, immobilized cyclic peptide); settings: peptide immobilized on CM5 sensor chip; human integrin αvβ5 30-1,000 nM, 25° C., HEPES buffer with 5 mM magnesium chloride; read-out: Integrin binding property (dissociation constant)
Experimental: A commercially available CM5 sensor chip (a carboxymethyl dextran introduction type, manufactured by GE Healthcare) was set in a surface plasmon resonance apparatus (product name: Biacore 3000, manufactured by GE Healthcare), the sensor was stabilized at a flow rate of 10 μL/min of a 4-(2-hydroxyethyl)-1-piperazineethanesulfonic acid (HEPES) buffer solution (20 mM HEPES-HCl, 150 mM NaCl, pH 7.4) for surface plasmon resonance (SPR), and 70 μL of a mixed aqueous solution of 0.2 M 1-(3-dimethylaminopropyl)-3-ethylcarbodiimide (EDC) and 0.04 M N-hydroxysuccinimide (NHS) was added thereto. Then, 300 μL of the sample solution of each of the above cyclic peptides diluted to 0.2 g/L with the HEPES buffer solution was supplied to the sensor chip, blocking treatment was subsequently carried out with an ethanolamine solution, and washing was carried out with a sodium hydroxide aqueous solution, whereby immobilization was carried out. However, only for the cyclic peptide 22, in which the number of lysine residues having an amino group as the immobilizing functional group was 1, the sample solution to be supplied to the sensor chip was set to 5,000 μL instead of 300 μL. Similarly; 70 μL of the mixed aqueous solution of 0.2 M EDC and 0.04 M NHS was added to another flow channel of the same sensor chip without immobilizing the sample, and then blocking treatment and washing treatment were carried out. Hereinafter, the obtained immobilization-treated sensor chip is referred to as an “immobilization-treated sensor chip A”.
After adding human integrin αvβ5 for 10 minutes at 25° C., which was diluted to 30 nM using a HEPES buffer solution to which magnesium chloride was added to 5 mM, in each flow channel of the immobilization-treated sensor chip A prepared in (1) above, the same HEPES buffer solution (containing 5 mM magnesium chloride) was allowed to flow as a running buffer for 30 minutes, and measurement was carried out with Biacore 3000.
Then, a regeneration treatment of removing human integrin αvβ5 was carried out by allowing a 0.5 M EDTA aqueous solution to flow through each flow channel for 10 minutes. Further, the above-described measurement process consisting of adding integrin for 10 minutes, allowing a running buffer to flow for 30 minutes, carrying out measurement with Biacore 3000, and carrying out regeneration treatment with 0.5 M EDTA aqueous solution was carried out in the same manner for 100 nM human integrin αvβ5, 300 nM human integrin αvβ5, and 1,000 nM human integrin αvβ5. Dissociation constant between the cyclic peptide and human integrin αvβ5 was calculated from the difference between the value measured by Biacore 3000 in the flow channel immobilized with the cyclic peptide and the value measured by Biacore 3000 in the flow channel unimmobilized with the cyclic peptide, in a case where each concentration of human integrin αvβ5 was allowed to flow; and the integrin binding property was evaluated according to the following evaluation standards. It is preferable that the evaluation result satisfies the evaluation standard A, B, or C.

Sequence of human integrin αvβ5 (P06756 31-889 limits assumed): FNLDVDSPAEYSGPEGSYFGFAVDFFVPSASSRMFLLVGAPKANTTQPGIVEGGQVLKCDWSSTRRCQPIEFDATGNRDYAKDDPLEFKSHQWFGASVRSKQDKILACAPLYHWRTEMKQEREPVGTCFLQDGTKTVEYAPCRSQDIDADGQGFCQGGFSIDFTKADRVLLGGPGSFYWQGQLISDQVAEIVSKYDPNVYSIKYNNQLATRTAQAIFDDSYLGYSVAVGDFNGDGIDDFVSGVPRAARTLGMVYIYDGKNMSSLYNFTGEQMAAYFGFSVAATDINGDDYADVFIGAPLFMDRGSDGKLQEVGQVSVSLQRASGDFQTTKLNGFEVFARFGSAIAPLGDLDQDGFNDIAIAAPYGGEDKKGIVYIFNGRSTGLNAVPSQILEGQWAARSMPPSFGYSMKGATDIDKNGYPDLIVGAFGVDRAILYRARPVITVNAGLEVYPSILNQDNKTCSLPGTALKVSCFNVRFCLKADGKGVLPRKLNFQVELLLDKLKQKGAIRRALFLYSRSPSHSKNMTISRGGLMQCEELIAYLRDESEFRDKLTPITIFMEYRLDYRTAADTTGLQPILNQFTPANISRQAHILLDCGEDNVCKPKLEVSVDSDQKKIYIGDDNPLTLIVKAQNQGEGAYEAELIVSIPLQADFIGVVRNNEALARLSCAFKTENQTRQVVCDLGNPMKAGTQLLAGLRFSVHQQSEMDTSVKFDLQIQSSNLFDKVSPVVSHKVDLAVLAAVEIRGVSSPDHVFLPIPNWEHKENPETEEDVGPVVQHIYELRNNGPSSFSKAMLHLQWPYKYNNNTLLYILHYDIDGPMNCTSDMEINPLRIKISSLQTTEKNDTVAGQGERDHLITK
Sequence of human integrin αvβ5 (P06756 891-1048 partner limits assumed): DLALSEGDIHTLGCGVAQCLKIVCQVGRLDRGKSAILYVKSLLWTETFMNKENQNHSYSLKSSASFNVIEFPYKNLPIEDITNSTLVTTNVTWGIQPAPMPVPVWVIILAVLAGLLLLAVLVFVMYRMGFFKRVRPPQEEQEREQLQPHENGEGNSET
Sequence of human integrin αvβ5 (P18084 24-799): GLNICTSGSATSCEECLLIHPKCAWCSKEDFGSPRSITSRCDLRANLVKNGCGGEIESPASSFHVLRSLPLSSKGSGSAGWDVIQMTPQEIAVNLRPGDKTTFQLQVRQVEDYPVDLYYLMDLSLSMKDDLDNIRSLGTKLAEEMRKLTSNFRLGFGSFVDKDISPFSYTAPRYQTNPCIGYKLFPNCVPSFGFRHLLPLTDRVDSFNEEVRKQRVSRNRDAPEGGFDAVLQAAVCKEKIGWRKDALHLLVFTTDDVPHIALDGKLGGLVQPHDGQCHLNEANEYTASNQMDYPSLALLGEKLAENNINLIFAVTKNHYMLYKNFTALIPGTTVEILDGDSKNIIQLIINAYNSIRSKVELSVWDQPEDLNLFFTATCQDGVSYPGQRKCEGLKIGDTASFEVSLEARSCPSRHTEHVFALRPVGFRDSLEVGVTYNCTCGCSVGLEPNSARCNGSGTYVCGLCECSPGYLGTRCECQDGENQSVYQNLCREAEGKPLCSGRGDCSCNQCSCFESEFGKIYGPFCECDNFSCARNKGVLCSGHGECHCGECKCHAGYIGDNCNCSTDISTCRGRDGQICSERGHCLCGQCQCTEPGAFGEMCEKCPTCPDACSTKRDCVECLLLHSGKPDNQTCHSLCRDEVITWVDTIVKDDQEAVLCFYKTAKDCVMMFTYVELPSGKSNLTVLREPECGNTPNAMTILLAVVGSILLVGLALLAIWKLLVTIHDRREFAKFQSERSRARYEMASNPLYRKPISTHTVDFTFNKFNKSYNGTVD

| SMILES | Molecule stability (cyclic peptide residual rate) [1] | Kd (human integrin αvβ5) |
| --- | --- | --- |
| C[C@H](NC(=O)[C@@H]1CCSCC(=O)N[C@@H](CC(=O)O)C(=O)N[C@H]2CCSCC(=O)NCCCC[C@H](NC(=O)[C@H](CC(=O)O)NC(=O)CNC(=O)[C@H](CCCNC(=N)N)NC2=O)C(=O)N[C@@H](Cc2ccccc2)C(=O)N1)C(=O)N[C@@H](CCCCN)C(=O)N[C@@H](CCCCN)C(=O)N[C@@H](CCCCN)C(=O)O [Cyclic peptide 45] ({CH2CO}-D[hCys]RGDKF[hCys]AKKK-OH; linker 2-6 via X1; thioether N-8) | A (The residual rate of the cyclic peptide is 70% or more.) | < 50 nM |
| CC(C)[C@@H]1NC(=O)CSCC[C@@H](C(=O)N[C@@H](CCCCN)C(=O)N[C@@H](CCCCN)C(=O)N[C@@H](CCCCN)C(=O)O)NC(=O)[C@H](Cc2ccccc2)NC(=O)[C@@H]2CCCCNC(=O)CSCC[C@H](NC1=O)C(=O)N[C@@H](CCCNC(=N)N)C(=O)NCC(=O)N[C@@H](CC(=O)O)C(=O)N2 [Cyclic peptide 28] ({CH2CO}-V[hCys]RGDKF[hCys]KKK-OH; linker 2-6 via X1; thioether N-8) | A (The residual rate of the cyclic peptide is 70% or more.) | < 50 nM |
| CC[C@H](C)[C@@H]1NC(=O)CSC[C@@H](C(=O)N[C@@H](CCCCN)C(=O)N[C@@H](CCCCN)C(=O)N[C@@H](CCCCN)C(=O)O)NC(=O)[C@H](Cc2ccccc2)NC(=O)[C@@H]2CCCCNC(=O)CSCC[C@H](NC1=O)C(=O)N[C@@H](CCCNC(=N)N)C(=O)NCC(=O)N[C@@H](CC(=O)O)C(=O)N2 [Cyclic peptide 17] ({CH2CO}-I[hCys]RGDKFCKKK-OH; linker 2-6 via X1; thioether N-8) | A (The residual rate of the cyclic peptide is 70% or more.) | < 50 nM |
| CC[C@H](C)[C@@H]1NC(=O)CSCC[C@@H](C(=O)N[C@@H](CCCCN)C(=O)N[C@@H](CCCCN)C(=O)N[C@@H](CCCCN)C(=O)O)NC(=O)[C@H](CCCNC(=N)N)NC(=O)[C@H](Cc2ccccc2)NC(=O)[C@@H]2CCCCNC(=O)CSCC[C@H](NC1=O)C(=O)N[C@@H](CCCNC(=N)N)C(=O)NCC(=O)N[C@@H](CC(=O)O)C(=O)N2 [Cyclic peptide 33] ({CH2CO}-I[hCys]RGDKFR[hCys]KKK-OH; linker 2-6 via X1; thioether N-9) | A (The residual rate of the cyclic peptide is 70% or more.) | 100 to 200 nM |
| CC[C@H](C)[C@@H]1NC(=O)CSCC[C@@H](C(=O)N[C@@H](CCCCN)C(=O)O)NC(=O)[C@H](Cc2ccccc2)NC(=O)[C@@H]2CCCCNC(=O)CSCC[C@H](NC1=O)C(=O)N[C@@H](CCCNC(=N)N)C(=O)NCC(=O)N[C@@H](CC(=O)O)C(=O)N2 [Cyclic peptide 22] ({CH2CO}-I[hCys]RGDKF[hCys]K-OH; linker 2-6 via X1; thioether N-8) | A (The residual rate of the cyclic peptide is 70% or more.) | < 50 nM |
| C[C@H](NC(=O)[C@@H]1CCCCNC(=O)CSCC[C@H](NC(=O)[C@H](CCCCN)NC(=O)[C@H](CCCCN)NC(=O)[C@@H](N)CCCCN)C(=O)N[C@H]2CCSCC(=O)NCCCC[C@H](NC(=O)[C@H](CC(=O)O)NC(=O)CNC(=O)[C@H](CCCNC(=N)N)NC2=O)C(=O)N[C@@H](Cc2ccccc2)C(=O)N1)C(=O)O [Cyclic peptide 37] (H-KKK[hCys][hCys]RGDKFKA-OH; linker 4-11, 5-9 via X1) | A (The residual rate of the cyclic peptide is 70% or more.) | 50 to 100 nM |
| C[C@H](NC(=O)[C@@H]1CCSCC(=O)N[C@@H](CCC(=O)O)C(=O)N[C@H]2CCSCC(=O)NCCCC[C@H](NC(=O)[C@H](CC(=O)O)NC(=O)CNC(=O)[C@H](CCCNC(=N)N)NC2=O)C(=O)N[C@@H](Cc2ccccc2)C(=O)N1)C(=O)N[C@@H](CCCCN)C(=O)N[C@@H](CCCCN)C(=O)N[C@@H](CCCCN)C(=O)O [Cyclic peptide 46] ({CH2CO}-E[hCys]RGDKF[hCys]AKKK-OH; linker 2-6 via X1; thioether N-8) | A (The residual rate of the cyclic peptide is 70% or more.) | < 50 nM |
| CC[C@H](C)[C@@H]1NC(=O)CSCC[C@@H](C(=O)N[C@@H](CCCCN)C(=O)N[C@@H](CCCCN)C(=O)N[C@@H](CCCCN)C(=O)O)NC(=O)[C@H](Cc2ccccc2)NC(=O)[C@@H]2CCSCC(=O)NCCCC[C@H](NC1=O)C(=O)N[C@@H](CCCNC(=N)N)C(=O)NCC(=O)N[C@@H](CC(=O)O)C(=O)N2 [Cyclic peptide 4] ({CH2CO}-IKRGD[hCys]F[hCys]KKK-OH; linker 2-6 via X2; thioether N-8) | A (The residual rate of the cyclic peptide is 70% or more.) | 50 to 100 nM |
| CC[C@H](C)[C@@H]1NC(=O)CSC[C@@H](C(=O)N[C@@H](CCCCN)C(=O)N[C@@H](CCCCN)C(=O)N[C@@H](CCCCN)C(=O)O)NC(=O)[C@H](Cc2ccccc2)NC(=O)[C@@H]2CCSCC(=O)NCCC[C@H](NC1=O)C(=O)N[C@@H](CCCNC(=N)N)C(=O)NCC(=O)N[C@@H](CC(=O)O)C(=O)N2 [Cyclic peptide 15] ({CH2CO}-I[Orn]RGD[hCys]FCKKK-OH; linker 2-6 via X2; thioether N-8) | A (The residual rate of the cyclic peptide is 70% or more.) | < 50 nM |
| C[C@H](NC(=O)[C@@H]1CCSCC(=O)N[C@@H](CCC(=O)O)C(=O)N[C@H]2CCSCC(=O)NCCC[C@H](NC(=O)[C@H](CC(=O)O)NC(=O)CNC(=O)[C@H](CCCNC(=N)N)NC2=O)C(=O)N[C@@H](Cc2ccccc2)C(=O)N1)C(=O)N[C@@H](CCCCN)C(=O)N[C@@H](CCCCN)C(=O)N[C@@H](CCCCN)C(=O)O [Cyclic peptide 47] ({CH2CO}-E[hCys]RGD[Orn]F[hCys]AKKK-OH; linker 2-6 via X1; thioether N-8) | A (The residual rate of the cyclic peptide is 70% or more.) | < 50 nM |
| CC(C)[C@@H]1NC(=O)CSCC[C@@H](C(=O)N[C@@H](CCCCN)C(=O)N[C@@H](CCCCN)C(=O)N[C@@H](CCCCN)C(=O)O)NC(=O)[C@H](Cc2ccccc2)NC(=O)[C@@H]2CCSCC(=O)NCCC[C@H](NC1=O)C(=O)N[C@@H](CCCNC(=N)N)C(=O)NCC(=O)N[C@@H](CC(=O)O)C(=O)N2 [Cyclic peptide 38] ({CH2CO}-V[Orn]RGD[hCys]F[hCys]KKK-OH; linker 2-6 via X2; thioether N-8) | A (The residual rate of the cyclic peptide is 70% or more.) | < 50 nM |
| CC[C@H](C)[C@@H]1NC(=O)CSCC[C@@H](C(=O)N[C@@H](CCCCN)C(=O)N[C@@H](CCCCN)C(=O)N[C@@H](CCCCN)C(=O)O)NC(=O)[C@H](Cc2ccccc2)NC(=O)[C@@H]2CCCCNC(=O)CSC[C@H](NC1=O)C(=O)N[C@@H](CCCNC(=N)N)C(=O)NCC(=O)N[C@@H](CC(=O)O)C(=O)N2 [Cyclic peptide 18] ({CH2CO}-ICRGDKF[hCys]KKK-OH; linker 2-6 via X1; thioether N-8) | A (The residual rate of the cyclic peptide is 70% or more.) | < 50 nM |
